Test results from patent US20150025077A1 (COYOTE PHARMACEUTICALS, INC., priority 2012, published 2015).

Columns and labels:
[1] = test system: Rap1; experiment: Prenylation of Rap1 in Neuro2A cells, western blotting; format: cell-based, mouse; details: 100 nM; with GGTI-298; percentage of control (GGTI only)
Method: Mouse neuroblastoma Neuro2A cells were cultured in DMEM supplemented with 10% FBS for 24 hrs. The cells were treated with 102GGA derivative compounds for 24 hrs first before GGTase inhibitor GGTI-298 was added to the culture medium for additional 24 hr incubation. […] Both un-prenylated and total Rap1 protein bands were quantified using Image J and normalized to their respective loading control GAPDH. The results for control and each compound treatment were calculated as the ratio of normalized un-prenylated Rap1 to total Rap1, and averaged from two biological repeats of one experiment. The final results were presented as a percentage of the control treatments (GGTI only) from the same batch experiment. The data shown in the chart were averaged from two repeats of one experiment and presented as the ratio of normalized un-prenylated Rap1 to total Rapt Compound ID numbers in table refer to structures in Table 1 and Table 2.

[2] = test system: Sprague Dawley rats; experiment: Kainic acid stereotactic hippocampus injection model, fraction of cells damaged; format: in vivo, rat; details: KA at 72 hours
Method: CNS-102 was administered orally to Sprague Dawley rats at 12 mg/kg. After dosing, KA was stereotactically injected into the hippocampus at 24, 48, 72, 96 and 168 hours to induce neuron damage. After 24 h, hippocampus tissue was collected, stained, and imaged. The scans were analyzed by Image J to calculate the fraction of cells having KA-induced damage. Average fraction damaged in the hippocampus from ten animals for each treatment (PBS vs. 12 mg/kg CNS-102) by time (24, 48, 72, 96 and 168 hours) combination was estimated with PROC MIXED in SAS. Comparisons of the CNS-102 treatment groups to the pooled PBS treatment at the different times can be made, giving the results tabulated below.
The fraction of cells damaged in the kainic acid model was determined on 130 rats, each receiving one dose of CNS-102 at either 0, 1, 3, 6, 12 or 24 mg/kg. PBS was used for dosing at 0 mg/kg. The linear model of the log10 percent damage versus concentration is graphically shown FIG. 5.
After dosing, KA was stereotactically injected into the hippocampus at 72 hours to induce neuron damage. After 24 h, hippocampus tissue was collected, stained, and imaged. The scans were analyzed by Image J to calculate the fraction of cells having KA-induced damage.
The indicated compounds or vehicle control were orally dosed to Sprague-Dawley rats, and Kainic acid was injected. After dosing, KA was stereotactically injected into the hippocampus at 72 hours to induce neuron damage. After 24 h, hippocampus tissue was collected, stained, and imaged. The scans were analyzed by Image J to calculate the fraction of cells having KA-induced damage. Neurons damaged by Kainic acid (mean of hippocampus CA3 neurons damaged) were quantified.

[3] = test system: HSP70; experiment: HSP70 levels in Neuro 2a cells, ELISA; format: cell-based, mouse; details: 48 hrs compound then 24 hrs GGTI-298
Method: Mouse neuroblastoma 2a cells were cultured in DMEM with 10% FBS for 24 hrs. […] After 24 hrs cells were harvested and lysates were prepared and analyzed by ELISA for HSP70. Compound ID numbers in table refer to structures in Table 1 and Table 2.

| SMILES | unprenylated/total RAP1 (%) [1] | HSP70 level, ELISA signal (absence of compounds normalized as 1.00) ([3]; 10uM) | other results |
| --- | --- | --- | --- |
| CC(=O)CC/C=C(\C)CC/C=C(\C)CC/C=C(\C)CC/C=C(\C)CCC=C(C)C [Compound 132] | 103% | – | – |
| COC(=O)[C@@H](NC(=O)OC/C=C(\C)CC/C=C(\C)CC/C=C(\C)CCC=C(C)C)C(C)C [Compound 7j, Methyl 2-(S)-(−)-3-methylbutyrate 2E,6E,10E-geranylgeranyl Carbamate] | 63% | – | Mean of Hippocampus CA3 Neurons Damaged ([2]; 1 mg/kg oral): 13% |
| CCOC(=O)/C=C(\CC)CC/C=C(\C)CC/C=C(\C)CCC=C(C)C [Compound 131] | 61% | – | – |
| CC(C)=CCC/C(C)=C/CC/C(C)=C/CC/C(C)=C/COC(=S)NC1CC1 [Compound 10f, Cyclopropyl 2E,6E,10E-geranylgeranyl thiocarbamate] | 40% | 1.57 | Mean of Hippocampus CA3 Neurons Damaged ([2]; 20 mg/kg oral): 16% |
| CC(C)=CCC/C(C)=C/CC/C(C)=C/CC/C(C)=C/C1=N[C@@H](Cc2ccccc2)CO1 [Compound 27g, (S)-4-benzyl-2-((1E,5E,9E)-2,6,10,14-tetramethylpentadeca-1,5,9,13-tetraen-1-yl)-4,5-dihydrooxazole] | 129% | 1.11 | – |
| CC(C)=CCC/C(C)=C/CC/C(C)=C/CC/C(C)=C/COC(=S)NC1CC2CCC1C2 (stereo not drawn) [Compound 10j, Exo-Norbornyl 2E,6E,10E-geranylgeranyl thiocarbamate] | 91% | 1.08 | HSP70 level, ELISA signal (absence of compounds normalized as 1.00) ([3]; 100 nM): 1.06 |
| CC(C)=CCC/C(C)=C/CC/C(C)=C/CC/C(C)=C/COC(=O)C1CCCCC1 [Compound 2f, 2E, 6E, 10E-Geranylgeranyl cyclohexanoate] | 65% | – | – |
| CCOC(=O)CNC(=S)OC/C=C(\C)CC/C=C(\C)CC/C=C(\C)CCC=C(C)C [Compound 10d, Ethoxycarbonylmethyl 2E,6E,10E-geranylgeranyl thiocarbamate] | 62% | 1.36 | Mean of Hippocampus CA3 Neurons Damaged ([2]; 2 mg/kg oral): 14% |
| CC(C)=CCC/C(C)=C/CC/C(C)=C/CC/C(C)=C/CC1CCCCC1=O (centres unmarked) [Compound 84] | 72% | – | – |
| CCOC(=O)CCNC(=O)OC/C=C(\C)CC/C=C(\C)CC/C=C(\C)CCC=C(C)C [Compound 7m, Ethoxycarbonyl ethyl 2E, 6E, 10E-geranylgeranyl carbamate] | 54% | – | HSP70 level, ELISA signal (absence of compounds normalized as 1.00) ([3]; 100 nM): 0.89 |
| CCCCCNC(=O)OC(C)CC/C=C(\C)CC/C=C(\C)CCC=C(C)C (centres unmarked) [Compound 20d, n-Pentyl 5E, 9E-farnesyl prop-2-yl carbamate] | 67% | – | – |
| CC(C)=CCC/C(C)=C/CC/C(C)=C/CCC(C)OC(=O)NCC1CCCCC1 (centres unmarked) [Compound 20h, Cyclohexylmethyl 5E, 9E-farnesyl prop-2-yl carbamate] | 58% | – | – |
| CC(C)=CCC/C(C)=C/CC/C(C)=C/CC/C(C)=C/COC(=S)NCCN1CCOCC1 [Compound 10m, Morpholinyl-2′-ethyl 2E,6E,10E-geranylgeranyl thiocarbamate] | 100% | 1.06 | – |
| CC(C)=CCC/C(C)=C/CC/C(C)=C/CC/C(C)=C/C1=N[C@@H](CC(C)C)C(=O)O1 [Compound 37d, (S)-4-isobutyl-2-((1E,5E,9E)-2,6,10,14-tetramethylpentadeca-1,5,9,13-tetraen-1-yl)oxazol-5(4H)-one] | 128% | 1.04 | – |
| CC(=O)CC/C=C(\C)CC/C=C(\C)CCC=C(C)C [Compound 52] | 71% | – | – |
| CCCCCCNC(=O)OC/C=C(\C)CC/C=C(\C)CCC=C(C)C [Compound 8i, Hexyl 2E, 6E-farnesyl carbamate] | 59% | 0.97 | – |

| SMILES | unprenylated/total RAP1 (%) [1] | HSP70 level, ELISA signal (absence of compounds normalized as 1.00) ([3]; 10uM) | other results |
| --- | --- | --- | --- |
| CC(C)=CCC/C(C)=C/CC/C(C)=C/CC/C(C)=C/c1cnco1 [Compound 14, 5-((1E,5E,9E)-2,6,10,14-tetramethylpentadeca-1,5,9,13-tetraen-1-yl)oxazole] | 96% | 0.96 | Mean of Hippocampus CA3 Neurons Damaged ([2]; 2 mg/kg oral): 13% |
| CC(C)=CCC/C(C)=C/CC/C(C)=C/CC/C(C)=C/COC(=S)NCCN1CCCCC1 [Compound 10l, Piperidinyl-2′-ethyl 2E,6E,10E-geranylgeranyl thiocarbamate] | 164% | 1.37 | Mean of Hippocampus CA3 Neurons Damaged ([2]; 20 mg/kg oral): 14%; HSP70 level, ELISA signal (absence of compounds normalized as 1.00) ([3]; 100 nM): 1.16 |
| CCCCCCNC(=O)OC/C=C(\C)CC/C=C(\C)CC/C=C(\C)CCC=C(C)C [Compound 7e, n-Hexyl 2E,6E,10E-geranylgeranyl carbamate] | 64% | – | Mean of Hippocampus CA3 Neurons Damaged ([2]; 12 mg/kg oral): 18% |
| CCC(=O)CC/C=C(\CC)CC/C=C(\C)CC/C=C(\C)CCC=C(C)C [Compound 128] | 67% | – | – |
| CC(C)=CCC/C(C)=C/CC/C(C)=C/CC/C(C)=C/C1=N[C@@H](C(C)C)CO1 [Compound 27a, (S)-4-isopropyl-2-((1E,5E,9E)-2,6,10,14-tetramethylpentadeca-1,5,9,13-tetraen-1-yl)-4,5-dihydrooxazole] | 96% | – | Mean of Hippocampus CA3 Neurons Damaged ([2]; 2 mg/kg oral): 11%; HSP70 level, ELISA signal (absence of compounds normalized as 1.00) ([3]; 100 nM): 1.02 |
| CC(C)=CCC/C(C)=C/CC/C(C)=C/COC(=S)NCCCN1CCOCC1 [Compound 9k, Morpholinyl-N-3′-propyl 2E, 6E-farnesyl thiocarbamate] | – | 0.97 | HSP70 level, ELISA signal (absence of compounds normalized as 1.00) ([3]; 10 nM): 1.13 |
| CC(C)=CCC/C(C)=C/CC/C(C)=C/CC/C(C)=C/CC1CCCCCC1=O (centres unmarked) [Compound 147] | – | – | HSP70 level, ELISA signal (absence of compounds normalized as 1.00) ([3]; 100 nM): 0.94 |
| CCNC(=O)OC/C=C(\C)CC/C=C(\C)CCC=C(C)C [Compound 8h, Ethyl 2E, 6E-farnesyl carbamate] | – | 0.86 | – |
| CC(C)=CCC/C(C)=C/CC/C(C)=C/CC/C(C)=C/CCC(=O)c1ccoc1 [Compound 69] | – | – | HSP70 level, ELISA signal (absence of compounds normalized as 1.00) ([3]; 100 nM): 0.90 |
| CC/C(=C\CCC(=O)C12CC3CC(CC(C3)C1)C2)CC/C=C(\C)CC/C=C(\C)CCC=C(C)C [Compound 127] | 77% | – | – |
| CC(C)=CCC/C(C)=C/CC/C(C)=C/COC(=O)NC(C)C [Compound 8a, iso-Propyl 2E,6E-farnesyl carbamate] | – | 1.33 | – |
| CC(C)=CCC/C(C)=C/CC/C(C)=C/CC/C(C)=C/COC(=O)c1c(C)cc(C)cc1C [Compound 2l, 2E, 6E, 10E-Geranylgeranyl-2′,4′,6′trimethylbenzoate] | – | 1.05 | – |
| CC(C)=CCC/C(C)=C/CC/C(C)=C/CC/C(C)=C/COC(=O)Nc1ccccn1 [Compound 40b, (2E,6E,10E)-3,7,11,15-tetramethylhexadeca-2,6,10,14-tetraen-1-yl pyridin-2-ylcarbamate] | – | – | HSP70 level, ELISA signal (absence of compounds normalized as 1.00) ([3]; 100 nM): 0.92 |
| CC(C)=CCC/C(C)=C/CC/C(C)=C/CC/C(C)=C/C1=N[C@H](CC(C)C)C(=O)O1 [Compound 37c, (R)-4-isobutyl-2-((1E,5E,9E)-2,6,10,14-tetramethylpentadeca-1,5,9,13-tetraen-1-yl)oxazol-5(4H)-one] | – | – | HSP70 level, ELISA signal (absence of compounds normalized as 1.00) ([3]; 100 nM): 0.99 |
| CNC(=S)OC/C=C(\C)CC/C=C(\C)CC/C=C(\C)CCC=C(C)C [Compound 10a, Methyl 2E,6E,10E-geranylgeranyl thiocarbamate] | – | 1.17 | – |
| CCNC(=O)OC(C)CC/C=C(\C)CC/C=C(\C)CCC=C(C)C (centres unmarked) [Compound 20a, Ethyl 5E,9E-farnesyl prop-2-yl carbamate] | – | – | HSP70 level, ELISA signal (absence of compounds normalized as 1.00) ([3]; 100 nM): 0.91 |
